Measured values: patent US20230321082A1, “USE OF TRIAZOLE ANALOGUES FOR INHIBITION OF A TRIPARTITE VOR PROTEIN COMPLEX IN MULTICELLULAR ORGANISMS” (TECHNISCHE UNIVERSITÄT DRESDEN, priority 2020, published 2023)
Each block holds one compound with its values, some of them ahead of it.

Columns and labels:
[1] = target: T1, tripartite VAP-A, ORP3 and Rab7 (VOR) protein complex (Homo sapiens, UniProt Q9H4L5); assay: VOR complex integrity in whole SW480 cells (anti-ORP3 immunoisolation, Rab7 co-immunoisolation); assay type: cell-based; settings: 10 μM, 5 hours
T1 construct: solubilized and subjected to immunoisolation (IS) using anti-ORP3 Ab followed by Protein G-coupled magnetic beads; endogenous in cells; host or cells: SW480 cells
T1 sequence (Q9H4L5 1-887): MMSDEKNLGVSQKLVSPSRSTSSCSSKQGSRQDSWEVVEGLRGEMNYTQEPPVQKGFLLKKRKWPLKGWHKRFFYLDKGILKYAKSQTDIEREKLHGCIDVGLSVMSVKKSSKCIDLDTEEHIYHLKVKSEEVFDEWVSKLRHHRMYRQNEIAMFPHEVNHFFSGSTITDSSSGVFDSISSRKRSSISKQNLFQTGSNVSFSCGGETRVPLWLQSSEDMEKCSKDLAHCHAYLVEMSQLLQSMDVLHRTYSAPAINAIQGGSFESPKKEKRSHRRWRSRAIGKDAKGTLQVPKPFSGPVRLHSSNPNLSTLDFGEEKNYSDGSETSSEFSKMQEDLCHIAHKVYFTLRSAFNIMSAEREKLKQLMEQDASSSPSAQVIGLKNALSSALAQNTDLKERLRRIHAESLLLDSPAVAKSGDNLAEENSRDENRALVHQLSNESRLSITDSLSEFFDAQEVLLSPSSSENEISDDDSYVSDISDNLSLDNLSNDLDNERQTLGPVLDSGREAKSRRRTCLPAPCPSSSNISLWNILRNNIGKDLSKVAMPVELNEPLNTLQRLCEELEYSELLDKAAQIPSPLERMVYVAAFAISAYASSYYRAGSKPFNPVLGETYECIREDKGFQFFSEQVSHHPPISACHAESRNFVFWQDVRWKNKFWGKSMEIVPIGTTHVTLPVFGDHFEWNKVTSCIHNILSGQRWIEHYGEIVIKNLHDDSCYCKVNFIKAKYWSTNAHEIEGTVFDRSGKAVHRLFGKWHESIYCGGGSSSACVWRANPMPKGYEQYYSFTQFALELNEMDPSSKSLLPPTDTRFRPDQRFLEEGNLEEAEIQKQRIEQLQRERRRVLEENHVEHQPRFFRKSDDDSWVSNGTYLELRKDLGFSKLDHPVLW
T1 sequence (Q9P0L0 1-249 partner): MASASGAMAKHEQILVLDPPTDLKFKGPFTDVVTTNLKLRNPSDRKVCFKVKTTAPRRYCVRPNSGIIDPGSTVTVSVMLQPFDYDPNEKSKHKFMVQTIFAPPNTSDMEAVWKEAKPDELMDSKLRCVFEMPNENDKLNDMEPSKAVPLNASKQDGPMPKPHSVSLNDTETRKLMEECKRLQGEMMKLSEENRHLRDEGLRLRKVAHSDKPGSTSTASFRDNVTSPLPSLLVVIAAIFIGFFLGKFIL
Procedure: SW480 cells were incubated with DMSO solvent alone (control), 10 μM ICZ, triazole compound 5, compound 3 or ketoconazole for 5 hours, solubilized and subjected to immunoisolation (IS) using anti-ORP3 Ab followed by Protein G-coupled magnetic beads. The input (1/50, for Rab7 only) and entire bound fractions were probed by immunoblotting for ORP3, VAP-A and Rab7. The Rab7/VAP-A ratios were quantified (n=3). The mean±S.D. are shown. P values are indicated.

[2] = target: T1, tripartite VAP-A, ORP3 and Rab7 (VOR) protein complex; assay: VOR complex integrity in detergent SW480 cell lysates (anti-ORP3 immunoisolation, Rab7 co-immunoisolation); assay type: biochemical; settings: 10 μM, 30 minutes on ice
Procedure: Detergent SW480 cell lysates were incubated with DMSO solvent alone (control), 10 μM ICZ, triazole compound 5, compound 3 or ketoconazole for 30 minutes on ice, and then subjected to immunoisolation (IS) using anti-ORP3 Ab followed by Protein G-coupled magnetic beads. The input (1/50, for Rab7 only) and entire bound fractions were probed by immunoblotting for ORP3, VAP-A and Rab7. The Rab7/VAP-A ratios were quantified (n=3). The mean±S.D. are shown. P values are indicated. […] Referring to FIGS. 12A, 12B, 12C and 12D illustrate the effects of various triazole compounds on the VOR complex integrity. Detergent SW480 cell lysates were incubated with DMSO solvent alone (control), 2.5 μM (FIG. 12A), 5 μM (FIG. 12B), 7.5 μM (FIG. 12C) or 10 μM (FIG. 12D) ICZ and triazole compounds for 30 minutes on ice and then subjected to immunoisolation (IS) using anti-ORP3 Ab followed by Protein G-coupled magnetic beads. The entire bound fractions were probed by immunoblotting for ORP3, VAP-A and Rab7 (data not shown). The percent inhibition of Rab7 expression were quantified and compared to the control sample (dashed line).

Cancer SW480 cells = assay: MTS cell viability, SW480 cells; assay type: cell-based; settings: 10 μM, 24, 48 and 72 hours
Procedure: (§1) Referring to FIG. 11, illustrates that triazole analogues were not toxic for cells. Cancer SW480 cells (left panel) and primary mesenchymal stromal cells (right panel) were incubated with DMSO solvent alone (control), 10 μM ICZ, compound 5, compound 3 or ketoconazole (KCZ) for 24, 48 and 72 hours as indicated. At the end of each time point, MTS tetrazolium compound (3-(4,5-dimethylthiazol-2-yl)-5-(3-carboxymethoxyphenyl)-2-(4-sulfophenyl)-2H-tetrazolium) was added for 1 hour to evaluate the amounts of viable cells. The absorbance value was measured at 490 nm. The mean±S.D. are shown (n=6). **, p<0.01.

[3] = tested on: primary mesenchymal stromal cells; assay: MTS cell viability, primary mesenchymal stromal cells; assay type: cell-based; settings: 10 μM, 24, 48 and 72 hours
Procedure: as §1

[4] = tested on: HIV-1 integrase in HeLa cells; assay: Transport of HIV-1 integrase into the nucleoplasmic reticulum (IN-2 immunolabelling); assay type: cell-based; settings: 10 μM, 30 minutes pretreatment, HIV-Gag-iGFP infection 1 hour
Procedure: (A) HeLa cells were pretreated with 10 μM of drugs as indicated for 30 minutes before HIV-Gag-iGFP infection for 1 hour in the presence of drugs. As controls, DMSO was used (DMSO, HIV-infected cells; control, uninfected cells). Cells were fixed and processed for double immunolabelling for VAP-A and HIV IN (IN-2). […] (B) HeLa cells expressing Rab7-RFP were treated as in panel A, and then double immunolabelled for SUN2 and IN-2. Scale bars, 10 (A) and 5 (B) μm.
Referring to FIG. 19A, B illustrates the quantification of IN-2 immunoreactivity in SUN2^+ NEI (A, 50 NEIs were assessed per experiment, n=3, individual values of each experiment is indicated) and the IN-2 nucleoplasm/cytoplasm ratio per cell (B, n=150 cells from three independent experiments) on HeLa cells treated with drugs as indicated (see FIG. 18B). Means±S.D. with individual values for each experiment (A) are shown. N.s., not significant; ***, p<0.001.

SW480 cells [5] = assay: Entry of Rab7+ late endosomes in SUN2+ NEI, confocal microscopy; assay type: cell-based; settings: 10 μM, 5 hours
Procedure: Referring to FIG. 8, illustrates that the triazole compound 5 inhibited the entry of Rab7^+ late endosomes in NEI. SW480 cells were incubated with DMSO (control), 10 μM ICZ, triazole compound 5, triazole compound 3 or ketoconazole (KCZ) for 5 hours prior to double immunolabelling for Rab7 and nuclear membrane protein SUN2 and the staining with cholesterol-binding compound filipin. Cells were analyzed by confocal laser scanning microscopy (left panel). Arrows indicate SUN2^+ NEI and arrowheads point to Rab7 and filipin-labelled cholesterol therein. […] The mean±S.D. are shown. P values are indicated. N.s., not significant. Scale bars, 5 μm.

SW480 cells [6] = assay: EV-induced pro-metastatic morphological transformation; assay type: cell-based; settings: 10 μM, 10 minutes pre-treatment, EVs 1×10^9 particles/ml, 5 hours
Procedure: Referring to FIG. 9, illustrates that the triazole compound 5 inhibited EV-induced pro-metastatic morphological transformation. SW480 cells were pre-treated with DMSO solvent alone (control), 10 μM ICZ, triazole compound 5 or compound 3 for 10 minutes prior to incubation without or with EVs (1×10^9 particles/ml) derived from metastatic SW620 cells for 5 hours. Cell morphology was analyzed by confocal laser scanning microscopy upon CD9 immunolabelling (data not shown). Bar graphs show the percentage of cells harboring a rounded (left panel) or blebbed (right panel) morphology upon exposure to EVs. The mean±S.D. are shown. At least 50 cells were evaluated per condition and independent experiment (n=6).

SW480 cells [7] = assay: Nuclear transfer of EV cargo (CD9-GFP); assay type: cell-based; settings: 10 μM, 10 minutes pre-treatment, 5-hour incubation with EVs
Procedure: SW480 cells were pre-treated for 10 minutes with DMSO (control), 10 μM ICZ, triazole compound 5, triazole compound 3 or ketoconazole (KCZ) prior to 5-hour incubation with melanoma cell-derived CD9-green fluorescent protein (GFP)^+ EVs in the absence or presence of drugs. Recipient cells were then fixed and immunolabelled for the nuclear membrane protein SUN2. The amounts of EV-derived CD9-GFP in the nuclear compartments were analyzed by confocal laser scanning microscopy and quantified using Fiji software. Nuclear CD9-GFP was evaluated from 50 cells per condition and a representative experiment with mean±S.D. are shown. P values are indicated. N.s., not significant.

SW480 cells [8] = assay: Scratch wound healing assay, EV-induced migration; assay type: cell-based; settings: 10 μM, EVs from SW620 cells 7.5×10^8 particles/ml, 5 hours
Procedure: Referring to FIG. 16, illustrates images of the scratch wound healing assay of SW480 cells treated with 10 μM drugs (ICZ, compound 5) without or with EVs (7.5×10^8 particles/ml) derived from SW620 cells for 5 hours (upper panels). The mean±S.E.M. (n=2 independent experiments) is presented (lower panel).

[9] = tested on: HIV-Gag-iGFP infection of HeLa cells; assay: HIV-1 productive infection (HIV-Gag-iGFP expression); assay type: cell-based; settings: 10 μM pretreatment, infection 6 hours, then 24 hours in presence of drugs
Procedure: Referring to FIG. 20A-C, illustrates the impact of drugs on productive infection. HeLa cells pretreated with drugs as above before HIV-Gag-iGFP infection for 6 hours, washed, and incubated for 24 hours in the presence of drugs. Samples were processed either for immunocytochemistry or flow cytometry analyses. DMSO was used as solvent vehicle. […] Dashed line represents DMSO-treated, noninfected cells as a negative control. […] The percentage of GFP^+ cells as assessed by flow cytometry is plotted (C). Means±S.D. with individual values for each experiment are shown. Cy, cytoplasm; Pm, plasma membrane; n.s., not significant; ***, p<0.001.

host cells = assay: NEI-associated late endosomes and nuclear transfer of EV-derived components after importazole treatment; assay type: cell-based
Text: Referring to FIGS. 1A, 1B and 1C, illustrate data showing the localization and tripartite structure of a VOR complex. […] Typically, EVs are transported to late endosomes after their endocytosis, wherein the EVs facilitate intercellular communication in diverse cellular processes.

Structure (SMILES): O=c1[nH]ncn1-c1ccc(Cl)cc1 [compound 3, 4-(4-Chlorophenyl)-2,4-dihydro-3H-1,2,4-triazol-3-one]
co-immunoisolation of Rab7 with ORP3 (Rab7/VAP-A ratio) [1]: do not
co-immunoisolation of Rab7 with ORP3 (Rab7/VAP-A ratio) [2]: do not
toxicity for cells (MTS, viable cells) (Cancer SW480 cells): not toxic
toxicity for cells (MTS, viable cells) [3]: not toxic
transport of HIV-1 integrase into the nucleoplasmic reticulum (IN-2 immunoreactivity in NEI) [4]: detected in NEI

Structure (SMILES): CCC(C)n1ncn(-c2ccc(Cl)cc2)c1=O (centres unmarked) [compound 5, 2-(butan-2-yl)-4-(4-chlorophenyl)-2,4-dihydro-3H-1,2,4-triazol-3-one]
co-immunoisolation of Rab7 with ORP3 (Rab7/VAP-A ratio) [1]: inhibit the co-immunoisolation of Rab7
co-immunoisolation of Rab7 with ORP3 (Rab7/VAP-A ratio) [2]: inhibits the co-immunoisolation of Rab7
Rab7 and cholesterol in SUN2+ NEI (SW480 cells [5]): absence of Rab7 and cholesterol
entry of Rab7+ late endosomes in NEI (SW480 cells [5]): inhibited
morphological transformation (rounded or blebbed) induced by EVs from metastatic SW620 cells (SW480 cells [6]): inhibited the morphological transformation
nuclear transfer of EV cargo (EV-derived CD9-GFP in nuclear compartments) (SW480 cells [7]): inhibited the nuclear transfer of EV cargo
toxicity for cells (MTS, viable cells) (Cancer SW480 cells): not toxic
toxicity for cells (MTS, viable cells) [3]: not toxic
migration of SW480 cells induced by EVs (SW480 cells [8]): inhibit the migration
transport of HIV-1 integrase into the nucleoplasmic reticulum (IN-2 immunoreactivity in NEI) [4]: inhibit the transport of HIV-1 integrase into the nucleoplasmic reticulum
Gag-iGFP expression (productive infection) [9]: reduction in Gag-iGFP expression

Structure (SMILES): CC(Nc1nc(N2CCCC2)nc2ccccc12)c1ccccc1 (centres unmarked) [importazole]
NEI-associated late endosomes (host cells): lack of the NEI-associated late endosomes
transfer of EV-derived components into the nucleoplasm of host cells (host cells): inhibition of transfer

co-immunoisolation of Rab7 with ORP3 (Rab7/VAP-A ratio) [1]: do not
co-immunoisolation of Rab7 with ORP3 (Rab7/VAP-A ratio) [2]: do not
Structure (SMILES): CC(=O)N1CCN(c2ccc(OCC3COC(Cn4ccnc4)(c4ccc(Cl)cc4Cl)O3)cc2)CC1 (centres unmarked) [ketoconazole, reference compound]
